Reference: patent US20240043470A1, “MACROCYCLIC COMPOUNDS AS PROTEASOME INHIBITORS” (CORNELL UNIVERSITY, priority 2017, published 2024)

Experiments:
β5c of hu c-20S = β5c of hu c-20S (Homo sapiens (Human), UniProt P20618+P28074); test: IC50 determination against β5c of human constitutive proteasome (suc-LLVY-AMC hydrolysis); type: biochemical; conditions: 0.2 nM c-20S, 25 μM suc-LLVY-AMC;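 note: IC50 obtained by fitting initial reaction velocities to a dose-dependent inhibition model, with SDS present as proteasome activator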
β5i of hu i-20S = β5i of hu i-20S (Homo sapiens (Human), UniProt P20618+P28062); test: IC50 determination against β5i of human immunoproteasome (Ac-ANW-AMC hydrolysis); type: biochemical; conditions: for IC50: β5i, 0.4 nM i-20S, 15 μM Ac-ANW-AMC;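 for all read-outs here: enzyme activity taken as the initial reaction velocity per well, with SDS added to activate the proteasome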

Row | IC50 (β5c of hu c-20S) [µM] | IC50 (β5i of hu i-20S) [µM] | Compound | % @ […], hu i-20S (β5i of hu i-20S; compound at […]) [% @ 33.3 μM]
1 | 18.5 | 10.1 | O=C1CCc2cccc(c2)Oc2ccc(cc2)C[C@@H](C(=O)NCc2cccc3ccccc23)NC(=O)[C@H](CC(=O)N2CCCC2)N1 (single isomer, unassigned) [Compound 2-03-A, N-(Naphthalen-1-ylmethyl)-7,10-dioxo-8-(2-oxo-2-(pyrrolidin-1-yl)ethyl)-2-oxa-6,9-diaza-1(1,3),3(1,4)-dibenzenacyclododecaphane-5-carboxamide] | –
2 | 56.7 | > 100 | C[C@H]1Cc2cccc(c2)OCCCC[C@@H](C(=O)NC2CCCC2)NC(=O)[C@H](CCN2CCOCC2)NC1=O (single isomer, unassigned) [Compound 3-37] | –
3 | 21.5 | > 100 | C[C@@H]1Cc2cccc(c2)OCCCC[C@@H](C(=O)NC2CCCC2)NC(=O)[C@H](CCN2CCOCC2)NC1=O (single isomer, unassigned) [Compound 3-38] | –
4 | 12.3 | > 100 | O=C1CCc2cccc(c2)OCCCC[C@@H](C(=O)NC2CCCC2)NC(=O)[C@H](CC(=O)N2CCCC2C2CC2)N1 (single isomer, unassigned) [Compound 3-45-A] | –
5 | 3.6 | > 100 | O=C1CCc2cccc(c2)OCCCC[C@@H](C(=O)NC2CCCC2)NC(=O)[C@H](CC(=O)N2CCCC2C2CC2)N1 (single isomer, unassigned) [Compound 3-45-B] | –
6 | > 100 | 7.22 | Cn1cc(CNC(=O)[C@@H]2Cc3cccc(c3)Oc3cccc(c3)C[C@H](NS(C)(=O)=O)C(=O)N[C@@H](CCc3ccccc3)C(=O)N2)cn1 [Compound 1-04, (5S,8S,11S)—N-((1-Methyl-1H-pyrazol-4-yl)methyl)-11-(methylsulfonamido)-7,10-dioxo-8-phenethyl-2-oxa-6,9-diaza-1,3(1,3)-dibenzenacyclododecaphane-5-carboxamide] | –
7 | > 100 | 14.8 | Cn1cc(CNC(=O)[C@@H]2Cc3cccc(c3)Oc3cccc(c3)C[C@H](NC(=O)CO)C(=O)N[C@@H](CCc3ccccc3)C(=O)N2)cn1 [Compound 1-05] | –
8 | 22.9 | 100 | CCN(CC)[C@H]1Cc2cccc(c2)Oc2cccc(c2)C[C@@H](C(=O)NCc2ccccc2)NC(=O)[C@H](CCc2ccccc2)NC1=O [Compound 1-16] | –
9 | 42.5 | 6.6 | O=C(NCc1ccccc1)[C@@H]1Cc2cccc(c2)Oc2cccc(c2)C[C@H](N2CCCC2)C(=O)N[C@@H](CCc2ccccc2)C(=O)N1 [Compound 1-17] | –
10 | 3.6 | > 100 | CC(C)(C)NC(=O)[C@@H]1Cc2cccc(c2)Oc2cccc(c2)C[C@H](NS(C)(=O)=O)C(=O)N[C@@H](CCc2ccccc2)C(=O)N1 [Compound 1-37] | –
11 | 30.7 | 33.9 | CN1CCN(C(=O)[C@@H]2Cc3cccc(c3)Oc3cccc(c3)C[C@H](NC(=O)c3ccccn3)C(=O)N[C@@H](CCc3ccccc3)C(=O)N2)CC1 [Compound 1-52] | –
12 | > 100 | 2.72 | CN1C(=O)[C@@H](N2CCCC2=O)Cc2cccc(c2)Oc2cccc(c2)C[C@@H](C(=O)NCC(F)(F)F)NC(=O)[C@@H]1CCc1ccccc1 [Compound 1-64] | –
13 | 17.9 | > 100 | Cc1ccc(CNC(=O)[C@@H]2Cc3cccc(c3)Oc3cccc(c3)C[C@H](NC(=O)OC(C)(C)C)C(=O)N[C@@H](CCc3ccccc3)C(=O)N2)cc1 [Compound 1-68, tert-Butyl-((5S,8S,11S)-5-((4-methylbenzyl)carbamoyl)-7,10-dioxo-8-phenethyl-2-oxa-6,9-diaza-1,3(1,3)-dibenzenacyclododecaphane-11-yl)carbamate] | –
14 | – | 61 | CN1C(=O)[C@H](CCN2CCOCC2)NC(=O)[C@@H](N2CCCC2=O)Cc2cccc(c2)Oc2cccc(c2)C[C@H]1C(=O)NCC(F)(F)F [Compound 1-86, (5S,8S,11S)-6-Methyl-8-(2-morpholinoethyl)-7,10-dioxo-11-(2-oxopyrrolidin-1-yl)-N-(2,2,2-trifluoroethyl)-2-oxa-6,9-diaza-1,3(1,3)-dibenzenacyclododecaphane-5-carboxamide] | –
15 | – | – | O=C(NC1CCCC1)[C@@H]1Cc2cccc(c2)Oc2cccc(c2)C[C@H](N2CCCS2(=O)=O)C(=O)N[C@@H](CCN2CCOCC2)C(=O)N1 [Compound 1-88, (5S,8S,11S)—N-Cyclopentyl-11-(1,1-dioxidoisothiazolidin-2-yl)-8-(2-morpholinoethyl)-7,10-dioxo-2-oxa-6,9-diaza-1,3(1,3)-dibenzenacyclododecaphane-5-carboxamide] | 15
16 | – | > 100 | O=C1CCc2cccc(c2)Oc2cccc(c2)C[C@@H](C(=O)NC2CCCC2)NC(=O)[C@H](CCN2CCOCC2)N1 [Compound 1-89, (5S,8S)—N-Cyclopentyl-8-(2-morpholinoethyl)-7,10-dioxo-2-oxa-6,9-diaza-1,3(1,3)-dibenzenacyclododecaphane-5-carboxamide] | –
17 | 68.1 | > 100 | COC1(CNC(=O)[C@@H]2Cc3cccc(c3)Oc3cccc(c3)CCC(=O)N[C@@H](CCN3CCOCC3)C(=O)N2)CC1 [Compound 1-90] | –
18 | > 100 | 0.96 | O=C1CCc2cccc(c2)Oc2ccc(cc2)CC(C(=O)NCc2cccc3ccccc23)NC(=O)C(CC(=O)N2CCCC2)N1 (stereo not shown) [Compound 2-03-B, N-(Naphthalen-1-ylmethyl)-7,10-dioxo-8-(2-oxo-2-(pyrrolidin-1-yl)ethyl)-2-oxa-6,9-diaza-1(1,3),3(1,4)-dibenzenacyclododecaphane-5-carboxamide] | –
19 | 0.78 | 15.6 | CC(=O)N[C@H]1Cc2cccc(c2)OC/C=C/C[C@@H](C(=O)NCC(F)(F)F)NC(=O)[C@H](CCc2ccccc2)NC1=O [Compound 3-01, (7S,10S,13S,E)-13-Acetamido-9,12-dioxo-10-phenethyl-N-(2,2,2-trifluoroethyl)-2-oxa-8,11-diaza-1(1,3)-benzenacyclotetradecaphan-4-ene-7-carboxamide] | –
20 | 0.433 | 5.88 | CC(=O)N[C@H]1Cc2cccc(c2)OCCCC[C@@H](C(=O)NCC(F)(F)F)NC(=O)[C@H](CCc2ccccc2)NC1=O [Compound 3-02, (3S,6S,9S)-3-Acetamido-4,7-dioxo-6-(2-phenylethyl)-N-(2,2,2-trifluoroethyl)-14-oxa-5,8-diazabicyclo[13.3.1]nonadeca-1(19),15,17-triene-9-carboxamide] | –
21 | – | 68 | O=C1N[C@H](CO)CCCCOc2cccc(c2)C[C@H](N2CCCC2=O)C(=O)N[C@H]1CCc1ccccc1 [Compound 3-06, (7S,10S,13S)-7-(Hydroxymethyl)-13-(2-oxopyrrolidin-1-yl)-10-phenethyl-2-oxa-8,11-diaza-1(1,3)-benzenacyclotetradecaphane-9,12-dione] | –

Row | Compound | IC50 (β5c of hu c-20S) [µM] | IC50 (β5i of hu i-20S) [µM] | % @ […], hu i-20S (β5i of hu i-20S; compound at […]) [% @ 33.3 μM]
22 | O=C1CCc2cccc(c2)OCCCC[C@@H](C(=O)NCc2ccccc2F)NC(=O)[C@H](CC(=O)N2CCCC2C2CC2)N1 (single isomer, unassigned) [Compound 3-46-A] | 0.0723 | 0.068 | –
23 | O=C1CCc2cccc(c2)OCCCC[C@@H](C(=O)NCc2ccccc2F)NC(=O)[C@H](CC(=O)N2CCCC2C2CC2)N1 (single isomer, unassigned) [Compound 3-46-B] | 1.35 | 0.312 | –
24 | O=C1N[C@@H](CC(=O)N2CCCC2)C(=O)N[C@H](C(=O)NCc2cccc3ccccc23)CCCCCCCCCC1Cc1ccccc1 (stereo in doubt) [Compound 4-04, (2S,5S,15S)-15-Benzyl-N-(naphthalen-1-ylmethyl)-3,16-dioxo-2-(2-oxo-2-(pyrrolidin-1-yl)ethyl)-1,4-diazacyclohexadecane-5-carboxamide] | – | 61.3 | –
25 | CC(C)(C)OC(=O)N[C@H]1Cc2cccc(c2)Oc2cccc(c2)C[C@@H](C(=O)OCc2ccccc2)NC(=O)[C@H](CCc2ccccc2)NC1=O [Compound 1-50, Benzyl-(S,8S,11S)-11-((tert-butoxycarbonyl)amino)-7,10-dioxo-8-phenethyl-2-oxa-6,9-diaza-1,3(1,3)-dibenzenacyclododecaphane-5-carboxylate] | > 100 | > 100 | –
26 | O=C(N[C@H]1Cc2cccc(c2)Oc2cccc(c2)C[C@@H](C(=O)NCC(F)(F)F)NC(=O)[C@H](CCc2ccccc2)NC1=O)C1CC1 [Compound 1-54, (5S,8S,11S)-11-(Cyclopropanecarboxamido)-7,10-dioxo-8-phenethyl-N-(2,2,2-trifluoroethyl)-2-oxa-6,9-diaza-1,3(1,3)-dibenzenacyclododecaphane-5-carboxamide] | > 100 | > 100 | –
27 | O=C(CC(F)(F)F)N[C@H]1Cc2cccc(c2)Oc2cccc(c2)C[C@@H](C(=O)NCC(F)(F)F)NC(=O)[C@H](CCc2ccccc2)NC1=O [Compound 1-55, (5S,8S,11S)-7,10-Dioxo-8-phenethyl-N-(2,2,2-trifluoroethyl)-11-(3,3,3-trifluoropropanamido)-2-oxa-6,9-diaza-1,3(1,3)-dibenzenacyclododecaphane-5-carboxamide] | > 100 | > 100 | –
28 | CN(C)[C@H]1Cc2cccc(c2)Oc2cccc(c2)C[C@@H](C(=O)NCC(F)(F)F)NC(=O)[C@H](CCc2ccccc2)NC1=O [Compound 1-57, (5S,8S,11S)-11-(Dimethylamino)-7,10-dioxo-8-phenethyl-N-(2,2,2-trifluoroethyl)-2-oxa-6,9-diaza-1,3(1,3)-dibenzenacyclododecaphane-5-carboxamide] | 1.1 | 18.7 | –
29 | O=C1CCc2cccc(c2)Oc2ccc(cc2)C[C@@H](C(=O)NCc2ccccc2F)NC(=O)[C@H](CC(=O)N2CCCC2)N1 [Compound 2-01-B, (5S,8S)—N-(2-Fluorobenzyl)-7,10-dioxo-8-(2-oxo-2-(pyrrolidin-1-yl)ethyl)-2-oxa-6,9-diaza-1(1,3),3(1,4)-dibenzenacyclododecaphane-5-carboxamide] | 75.4 | 0.845 | –
30 | O=C1CCc2cccc(c2)Oc2ccc(cc2)C[C@@H](C(=O)NCc2ccccc2F)NC(=O)[C@H](CC(=O)N2CCC[C@@H]2c2ccccc2)N1 [Compound 2-02-B, (5S,8S)—N-(2-Fluorobenzyl)-7,10-dioxo-8-(2-oxo-2-((R)-2-phenylpyrrolidin-1-yl)ethyl)-2-oxa-6,9-diaza-1(1,3),3(1,4)-dibenzenacyclododecaphane-5-carboxamide] | > 100 | 6.75 | –
